Test systems include A549 NSCLC; ACHN renal; BT-549 breast; CAKI-1 renal; COLO 205 colon; HOP-62 NSCLC; PC-3 prostate; SF-268 CNS; SK-MEL-28 melanoma; SK-MEL-5 melanoma; SN12C renal; A498 renal; HOP-92 NSCLC; TK-10 renal.
Experiment in all cases: NCI tumour cell line growth inhibition, 48 h

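Test compounds were applied to cells in 96-well plates for 48 hours at 5 doses. At the GI50, growth is halved. TGI: total growth inhibition.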 Where only a bound is given, the exact number is not on record here.

On to `O=c1c2cc(I)ccc2nc(-c2cccs2)n1Nc1ccccc1`, for which the TGI in the assay with A549 NSCLC is above 100 µM; in the assay with ACHN renal it was above 100 µM; in the assay with BT-549 breast, above 100 µM; with CAKI-1 renal, 65.9 µM; in the assay on COLO 205 colon, 3.66 µM; in the assay with HOP-62 NSCLC it was 68.6 µM. The TGI in the assay with PC-3 prostate, in the assay with SF-268 CNS, in the assay on SK-MEL-28 melanoma, with SK-MEL-5 melanoma and with SN12C renal was above 100 µM in each case.
Regarding `Nc1ccc(N=Nc2ccc(/C=C/c3ccc(N=Nc4ccc(N)c5ccc(S(=O)(=O)O)cc45)cc3S(=O)(=O)O)c(S(=O)(=O)O)c2)c2cc(S(=O)(=O)O)ccc12`, the TGI in the assay on A498 renal, with A549 NSCLC, with COLO 205 colon, with HOP-62 NSCLC, in the assay with HOP-92 NSCLC and with SF-268 CNS was above 100 µM throughout. Also, the TGI with SK-MEL-28 melanoma, in the assay on SK-MEL-5 melanoma and with SN12C renal was above 100 µM throughout.
On to `CC1CN=C(NCc2ccccc2)S1` (stereo not given), for which the TGI in the assay with A498 renal, in the assay on ACHN renal, with BT-549 breast, in the assay on HOP-62 NSCLC, with SF-268 CNS and in the assay on SK-MEL-28 melanoma was above 100 µM throughout. Besides, the TGI in the assay on SN12C renal and in the assay with TK-10 renal was above 100 µM in each case.
As to `COc1cc(/C=C2\CCCC3=C2NC(N)=NC3c2cc(OC)c(OC)c(OC)c2)cc(OC)c1OC` (stereo not given), the GI50 was 1.44 µM in the assay on CAKI-1 renal; 1.58 µM in the assay on HOP-92 NSCLC; 1.93 µM with PC-3 prostate; 2.42 µM in the assay on SF-268 CNS; 1.62 µM in the assay on SN12C renal; 3.24 µM in the assay with TK-10 renal. Besides, the TGI with CAKI-1 renal was 7.69 µM; in the assay with HOP-92 NSCLC, 5.74 µM; with PC-3 prostate it was above 100 µM; with SF-268 CNS, above 100 µM; in the assay on SN12C renal it was above 100 µM; in the assay with TK-10 renal, 7.23 µM.

The values above are taken from PubChem BioAssay (NCI).
